In the supplement of paper PMC10657565 one finds relative cell viability data, which are given here for five compounds.

One assay relates to HCC1806. Kind of assay: relative cell viability vs DMSO control (% of DMSO control); higher = less growth inhibition (higher viability). The settings on record: treatment time: 72 h. How it is done:
(§1)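 Breast cancer cell lines (BT-474, HCC1806, SUM-159, SKBR-3) were seeded in triplicate in 96-well plates and treated 24 h after seeding with kinase inhibitors at 8 doses (3 nM to 30 uM). After 72 h, viability was read by CellTiter-Glo luminescence. Values were averaged over replicates and normalised to DMSO-only (0.1%) controls on each plate to give relative viability (% of DMSO).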

A further assay relates to BT-474. The assay is described as above. The settings on record: treatment time: 72 h. As to the method:
as §1

± gives the uncertainty stated by the source.

In the case of `C[C@@H](NC(=O)c1ncnc(N)c1Cl)c1ncc(C(=O)Nc2cc(C(F)(F)F)c(Cl)cn2)s1` [MLN-2480], the relative cell viability in the assay on HCC1806 (0.003 µM) was found to be 102 ± 1.9; in the assay on HCC1806 (0.01 µM), 102 ± 1.8; with HCC1806 (0.03 µM), 103 ± 1.8; with HCC1806 (0.1 µM), 102 ± 2.5; with HCC1806 (0.3 µM), 103 ± 2.3; with HCC1806 (1 µM) it was 100 ± 5. Further, the relative cell viability was 101.2 ± 0.76 in the assay on HCC1806 (3 µM); 68 ± 4.8 with HCC1806 (30 µM); 93.9 ± 2.1 with BT-474 (0.003 µM); 98.5 ± 6 in the assay on BT-474 (0.01 µM); 97.3 ± 2.4 in the assay on BT-474 (0.03 µM); 95.8 ± 4.7 in the assay on BT-474 (0.1 µM). Besides, the relative cell viability in the assay on BT-474 (0.3 µM) stood at 88.1 ± 6.3; in the assay with BT-474 (1 µM) it was 77.5 ± 3.7; in the assay with BT-474 (3 µM) it was 86.6 ± 9.7; in the assay with BT-474 (30 µM), 69.5 ± 7.

`Cc1ccc(-n2nc(C(C)(C)C)cc2NC(=O)NCc2cc(F)ccc2Oc2ccc3c(cnn3CCO)c2)cc1` [Pexmetinib]: the relative cell viability in the assay with HCC1806 (0.003 µM) turned out to be 98.7 ± 2.1; with HCC1806 (0.01 µM), 100 ± 3.3; in the assay with HCC1806 (0.03 µM), 102 ± 4.9; with HCC1806 (0.1 µM), 105 ± 5.4; with HCC1806 (0.3 µM) it was 106 ± 4.4; with HCC1806 (1 µM) it was 102 ± 3.3. Moreover, the relative cell viability with HCC1806 (3 µM) was 88.3 ± 4.1; with HCC1806 (30 µM), 12.7 ± 1.3; with BT-474 (0.003 µM), 116 ± 3.7; with BT-474 (0.01 µM), 118 ± 3; in the assay with BT-474 (0.03 µM), 119 ± 1.9; with BT-474 (0.1 µM) it was 118 ± 4.1. In addition, the relative cell viability with BT-474 (0.3 µM) amounted to 116 ± 6.1; in the assay with BT-474 (1 µM) it was 110 ± 5; in the assay on BT-474 (3 µM), 105 ± 3.3; with BT-474 (30 µM), 28 ± 0.44.

With `CN1CCN(c2nc(C3=C(c4c[nH]c5ccccc45)C(=O)NC3=O)c3ccccc3n2)CC1` [Sotrastaurin], the relative cell viability with HCC1806 (0.003 µM) worked out at 101 ± 2.4; in the assay with HCC1806 (0.01 µM), 98.3 ± 3.2; in the assay with HCC1806 (0.03 µM) it was 100 ± 1.9; in the assay with HCC1806 (0.1 µM), 103 ± 2.2; in the assay with HCC1806 (0.3 µM), 103 ± 3.5; in the assay with HCC1806 (1 µM), 104 ± 3.6. The relative cell viability in the assay on HCC1806 (3 µM) is 103 ± 1.9; in the assay on HCC1806 (30 µM) it was 43.3 ± 5.5; in the assay on BT-474 (0.003 µM) it was 111 ± 4.3; with BT-474 (0.01 µM) it was 108 ± 9.6; in the assay with BT-474 (0.03 µM) it was 104 ± 15; with BT-474 (0.1 µM), 99.8 ± 21. Further, the relative cell viability in the assay on BT-474 (0.3 µM) is 91 ± 26; in the assay with BT-474 (1 µM) it was 84.5 ± 32; in the assay on BT-474 (3 µM) it was 76.8 ± 29; in the assay on BT-474 (30 µM), 42.4 ± 18.

For the compound `Cn1c(=O)c(F)c(Nc2ccc(I)cc2F)c2c(=O)n(C[C@@H](O)CO)cnc21` [TAK-733], the relative cell viability in the assay on HCC1806 (0.003 µM) turned out to be 77.8 ± 5.2; with HCC1806 (0.01 µM) it was 75.1 ± 5.4; in the assay on HCC1806 (0.03 µM), 73.8 ± 3.5; in the assay with HCC1806 (0.1 µM), 72.7 ± 4.1; in the assay with HCC1806 (0.3 µM), 71.6 ± 2.5; in the assay on HCC1806 (1 µM), 71.6 ± 3.9. For the same compound, the relative cell viability with HCC1806 (3 µM) turned out to be 70.3 ± 3.3; in the assay with HCC1806 (30 µM) it was 39.2 ± 3.9; with BT-474 (0.003 µM), 104 ± 16; in the assay on BT-474 (0.01 µM), 103 ± 7.3; with BT-474 (0.03 µM) it was 104 ± 11; in the assay with BT-474 (0.1 µM), 94.8 ± 12. The relative cell viability is 99.5 ± 11 in the assay on BT-474 (0.3 µM), 93 ± 14 in the assay on BT-474 (1 µM), 92 ± 9.1 in the assay with BT-474 (3 µM) and 36.3 ± 9.5 with BT-474 (30 µM).

Regarding `CN[C@@H]1C[C@H]2O[C@@](C)([C@@H]1OC)n1c3ccccc3c3c4c(c5c6ccccc6n2c5c31)C(=O)N[C@H]4O` [UCN-01], the relative cell viability is 97.8 ± 4.1 in the assay on HCC1806 (0.003 µM); 76.3 ± 6.7 in the assay on HCC1806 (0.01 µM); 36.7 ± 12 in the assay on HCC1806 (0.03 µM); 9.05 ± 0.96 in the assay with HCC1806 (0.1 µM); 8.6 ± 0.48 in the assay on HCC1806 (0.3 µM); 7.53 ± 0.63 with HCC1806 (1 µM). The relative cell viability was 2.19 ± 0.3 with HCC1806 (3 µM); 0.853 ± 0.066 with HCC1806 (30 µM); 97.4 ± 3.3 with BT-474 (0.003 µM); 89.9 ± 2 in the assay with BT-474 (0.01 µM); 85.5 ± 2.9 with BT-474 (0.03 µM); 85.9 ± 11 with BT-474 (0.1 µM). Besides, the relative cell viability with BT-474 (0.3 µM) stood at 56.9 ± 3.2; in the assay on BT-474 (1 µM), 34.5 ± 3.3; with BT-474 (3 µM), 15.9 ± 0.39; in the assay on BT-474 (30 µM) it was 6.69 ± 0.4.
